Test results as given in patent US20090042993A1, “IDENTIFICATION OF NOVEL POST-TRANSLATIONAL PROTEIN MODIFICATIONS” (priority 2007, published 2009).

Experiments:
[1] = system: lysine deacetylase activity in Golgi vesicles; assay: Membrane deacetylase activity, in vitro deacetylation of acetylated BACE1-myc by Golgi vesicles; assay type: biochemical, Chinese Hamster; conditions: vesicles from ceramide-treated cells, 0.2% Triton X-100, 30° C.
Excerpt: Intact vesicles from the endoplasmic reticulum (ER) and the Golgi apparatus were purified on a 10-34% Iodixanol (OptiPrep; Axis-Shield, Norway) continuous gradient as described (Puglielli et al., 2001, Nat. Cell Biol. 3: 905-912). The complete migration of subcellular markers in a typical gradient is shown in Costantini et al., 2006, EMBO J. 25: 1997-2006; Puglielli et al., 2001, Nat. Cell Biol. 3: 905-912. Fractions enriched in ER and Golgi markers (also called ER or Golgi vesicles herein) were separated, pooled together, and resuspended in isotonic/cryogenic buffer (0.25 M sucrose and 10 mM Tris-HCl, pH 7.4) in the presence of protease inhibitors (Roche). Latency of ER and Golgi vesicles was determined with the glucose-6-phosphatase (Clairmont et al., 1992, J. Biol. Chem. 267: 3983-3900) and the sialyl-transferase (Puglielli and Hirschberg, 1999, J. Biol. Chem. 274: 35596-35600) methods, respectively. […]
BACE1 was eluted by lowering the pH to 2.0 and recovered by centrifuging at 3000 rpm for 2 min. […] BACE1 was then immunoprecipitated and counted on a liquid scintillation counter. […]
FIG. 6 illustrates how acetyltransferase and deacetylase activities exist in the lumen of ER and Golgi apparatus, respectively. […] The reaction was stopped by lowering the temperature; BACE1 was then purified again and analyzed on a scintillation liquid counter. […]

[2] = system: BACE1; assay: Pulse-chase half-life of BACE1; assay type: cell-based, human; conditions: following ceramide treatment; ~16 hours without
Protocol: Confluent cells were starved for 1 hr in Met/Cys free medium, labeled with 100 μCi [^35S]-Met/Cys (Trans35S-Label, >1000 Ci/mmol; Pierce) in starvation medium/dish and chased for 8, 16, and 24 hours with DMEM supplemented with 5 mM cold Met/Cys. Cell extracts were pre-cleared with BioMag Protein A (Polysciences, Inc.). Beads were used at the concentration of 15 μl of the slurry per sample and separated with a magnetic holder. BACE1 was then immunoprecipitated with anti-BACE1 antibodies and recovered with BioMag Protein A as above. The immunoprecipitate-bead complexes were washed 3 times and boiled in sample buffer. Beads were then separated and the samples were analyzed by reducing SDS-PAGE (on a 4-12% Bis-Tris NuPAGE system) and autoradiography.
FIG. 3 illustrates how transient lysine acetylation controls both translocation along the secretory pathway and molecular stability of the nascent BACE1 protein. […] Immunoprecipitates were analyzed by SDS-PAGE and autoradiography. […] BACE1 was then immunoprecipitated as above and analyzed by reducing SDS-PAGE and autoradiography. Results are expressed as percentage of total newly-synthesized BACE1. […] BACE1 was immunoprecipitated from total cell lysates and analyzed by SDS-PAGE and autoradiography. The half-life of BACE1 from five different readings is shown in FIG. 3(C), whereas a representative radiogram is shown in FIG. 3(D). […]

- in vitro deacetylation of BACE1 by Golgi vesicles [1]: increased deacetylation
SMILES: CCCCCCCCCCCCC/C=C/[C@@H](O)[C@H](CO)NC(=O)CCCCC [ceramide, C6-ceramide]
- half-life of native BACE1 [2]: ~24 h
